≈ marks a conversion by molar mass, not a printed value. Where two headings read alike, the source gives them in different places.
Columns and labels:
[1] = In vitro microsomal stability, rat; type: in vitro ADME; conditions: Rat (Wistar)
Method: (§1) In vitro metabolic stability studies were performed to determine hepatic stability in vivo. CFMQ was incubated in liver microsomal preparations from mouse, rat, dog, mini-pig, and humans, as well as an additional study with monkey and human. CFMQ was incubated with human and animal liver microsomes at 0.3 mg/mL at 37° C. for 30 or 60 minutes. Additional reference compounds were incubated as controls. Following incubation, samples were analyzed by HPLC-MS/MS.

[2] = Pharmacokinetics, single oral gavage, Yucatan mini-pig; type: in vivo, female Yucatan Miniature Swine; conditions: PO 10 mg/kg
Method: CFMQ (HGT3711) was administered to female Yucatan Miniature Swine (mini-pig; n=3) by a single oral gavage at 10 mg/kg (concentration 2 mg/mL) at a dose volume of […]. This study utilized the spray-dried dispersion (SDD) (50; 50 with polymer; HPMCAS) formulation of CFMQ (HGT3711) (see below). Blood samples were taken via jugular or other suitable vein puncture prior to administration and at 0.083 (5 min), 0.25 (15 min), 0.50 (30 min), 1, 2, 4, 8, 12 and 24 hours post dose. Plasma concentrations of CFMQ (HGT3711) were determined by LC-MS/MS.

[3] = In vitro microsomal stability, mini-pig; type: in vitro ADME; conditions: Mini-Pig (Gotting), Male
Method: as §1

[4] = Pharmacokinetics, single oral gavage, CD-1 mice; type: in vivo, female CD-1 mice; conditions: female, CD-1, mouse, plasma
Method: CFMQ (HGT3711) was administered to fasted female CD-1 mice (n=18/dose group) by a single oral gavage at 100, 250 and 450 mg/kg in a dose volume of 5 mL/kg in a spray-dried dispersion formulation (discussed below). Blood samples were taken via cardiocentesis or abdominal vein prior to administration and at 10, 30, 60 (1 hr), 120 (2 hr), 240 (4 hr) and 480 (8 hr) minutes post dose. Plasma concentrations of CFMQ (HGT3711) were determined by LC-MS/MS (liquid chromatography mass spectrometry) and concentrations below the limit of quantitation (3 ng/mL) were assigned a value of zero for pharmacokinetic analysis. Nominal dosing concentrations were used in all calculations.

[5] = target: T1, NK3 (h) (Homo sapiens, UniProt P29371); test: Off-target receptor binding: NK3
T1 construct: expressed in transfected cells; host or cells: CHO or HEK 293 (not assigned per receptor)
T1 sequence (P29371 1-465): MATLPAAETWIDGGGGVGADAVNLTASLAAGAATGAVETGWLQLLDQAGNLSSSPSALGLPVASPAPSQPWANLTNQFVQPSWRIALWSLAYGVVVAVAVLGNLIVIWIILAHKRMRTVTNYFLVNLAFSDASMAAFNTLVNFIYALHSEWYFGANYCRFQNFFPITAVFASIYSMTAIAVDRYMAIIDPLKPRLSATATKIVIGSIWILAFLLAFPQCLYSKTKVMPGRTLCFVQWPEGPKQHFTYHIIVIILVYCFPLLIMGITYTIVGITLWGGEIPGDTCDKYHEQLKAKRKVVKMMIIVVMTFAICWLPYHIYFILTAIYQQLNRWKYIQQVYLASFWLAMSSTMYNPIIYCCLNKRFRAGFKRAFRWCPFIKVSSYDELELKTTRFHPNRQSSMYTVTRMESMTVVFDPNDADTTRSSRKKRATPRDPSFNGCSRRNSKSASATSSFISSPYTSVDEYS
Method: (§2) To determine the affinity to the B2-bradykinin receptor, CFMQ was compared to a diverse set of receptors and reference agents in an in vitro assay using cells from rat heart, urinary bladder, cerebral cortex, as well as human recombinant cells (CHO and HEK 293) and other cell lines. Each assay included a ligand at a specific concentration (concentration ranging from 0.007-10 nM), in addition to a non-specific ligand (concentration ranging from […]) for incubation periods ranging from 15 minutes to 6 hours at 4°-37° C. The specific binding to the receptors was defined as the difference between the total binding and the nonspecific binding, determined in the presence of an excess of unlabeled CFMQ. The concentration causing a half-maximal inhibition of control specific binding (IC50 values) and inhibition constants (Ki) were determined, and each reference compound was within the accepted limits of the historic average (±0.5 log units).

[6] = Physicochemical properties of CFMQ
Method: The physicochemical properties of 1-((4-Chloro-3-(((4-(4-fluoro-1H-pyrazol-1-yl)-2-methylquinolin-8-yl)oxy)methyl)-6-methylpyridin-2-yl)methyl)-2-oxo-1,2-dihydropyridine-3-carbonitrile (CFMQ) were determined using standard methods. CFMQ was a free base with a molecular weight of 514.9 Da and was a nonhygroscopic, crystalline powder with a melting point of about 214° C.

[7] = system: diverse set of receptors; test: Receptor binding and selectivity panel
Method: as §2

[8] = female, Yucatan, minipig, plasma
[9] = 100 mg/kg, read-out: Average Concentration of HGT3711
[10] = 250 mg/kg, read-out: Average Concentration of HGT3711
[11] = 450 mg/kg, read-out: Average Concentration of HGT3711
[12] = 450 mg/kg, n = 2, read-out: Average Concentration of HGT3711

In the case of Cc1cc(Cl)c(COc2cccc3c(-n4cc(F)cn4)cc(C)nc23)c(Cn2cccc(C#N)c2=O)n1 [CFMQ, 1-((4-Chloro-3-(((4-(4-fluoro-1H-pyrazol-1-yl)-2-methylquinolin-8-yl)oxy)methyl)-6-methylpyridin-2-yl)methyl)-2-oxo-1,2-dihydropyridine-3-carbonitrile], the “% Remaining [30 minutes]” value ([1]; Female) is reported as 76%, the “% Remaining [60 minutes]” value ([1]; Female) is reported as 60% and the “% Remaining [30 minutes]” value ([1]; Male) is reported as 3%. For the same compound, the “% Remaining [60 minutes]” value ([1]; Male) was 0%, the “clinical observations” value ([2]; mini-pig) was “no abnormal clinical observations” and the AUC(0-inf) [2, 8] was 11100 ng·h/mL. It also gave an AUC(0-t) [2, 8] of 10600 ng·h/mL, a half-life [2, 8] of 57 h and a concentration at 4 hr ([2]; female, Yucatan, pig (miniature swine), plasma, 4.0 hr, read-out: Average Concentration of HGT3711) of 1150 ng/mL. The concentration at 8 hr ([2]; female, Yucatan, pig (miniature swine), plasma, 8.0 hr, read-out: Average Concentration of HGT3711) was 284 ng/mL, the concentration at 12 hr ([2]; female, Yucatan, pig (miniature swine), plasma, 12 hr, read-out: Average Concentration of HGT3711) was 112 ng/mL and the concentration at 24 hr ([2]; female, Yucatan, pig (miniature swine), plasma, 24 hr, read-out: Average Concentration of HGT3711) was 14.2 ng/mL. For the same compound, the concentration at 0 hr ([2]; female, Yucatan, pig (minipig), plasma, 0 hr, read-out: Average Concentration of HGT3711) was 0 ng/mL, the concentration at 0.25 hr ([2]; female, Yucatan, pig (minipig), plasma, 0.25 hr, read-out: Average Concentration of HGT3711) was 80 ng/mL and the concentration at 0.5 hr ([2]; female, Yucatan, pig (minipig), plasma, 0.5 hr, read-out: Average Concentration of HGT3711) was 596 ng/mL. The concentration at 1 hr ([2]; female, Yucatan, pig (minipig), plasma, 1.0 hr, read-out: Average Concentration of HGT3711) was 1560 ng/mL, the concentration at 2 hr ([2]; female, Yucatan, pig (minipig), plasma, 2.0 hr, read-out: Average Concentration of HGT3711) was 2060 ng/mL and the “% Remaining [30 minutes]” value ([3]; 30 minutes) was 74%. For the same compound, the “% Remaining [60 minutes]” value ([3]; 60 minutes) was 58%, the AUC(0-inf) ([4]; 100 mg/kg) was 10500 ng·h/mL and the AUC(0-t) ([4]; 100 mg/kg) was 10500 ng·h/mL. For the same compound, the Cmax ([4]; 100 mg/kg) was 5300 ng/mL, the concentration at 10 min [4, 9] was 5300 ng/mL and the concentration at 30 min [4, 9] was 4100 ng/mL. The concentration at 60 min [4, 9] was 5170 ng/mL, the concentration at 120 min [4, 9] was 2200 ng/mL and the concentration at 240 min [4, 9] was 78 ng/mL. The concentration at 480 min [4, 9] was 18 ng/mL, the AUC(0-inf) ([4]; 250 mg/kg) was 24500 ng·h/mL and the AUC(0-t) ([4]; 250 mg/kg) was 24400 ng·h/mL. The Cmax ([4]; 250 mg/kg) was 13300 ng/mL, the concentration at 10 min [4, 10] was 6250 ng/mL and the concentration at 30 min [4, 10] was 13300 ng/mL. The concentration at 60 min [4, 10] was 10400 ng/mL, the concentration at 120 min [4, 10] was 4570 ng/mL and the concentration at 240 min [4, 10] was 854 ng/mL. The concentration at 480 min [4, 10] was 45 ng/mL, the AUC(0-inf) ([4]; 450 mg/kg) was 40900 ng·h/mL and the AUC(0-t) ([4]; 450 mg/kg) was 40800 ng·h/mL. It also gave a Cmax ([4]; 450 mg/kg) of 15800 ng/mL, a concentration at 10 min [4, 11] of 11600 ng/mL and a concentration at 30 min [4, 11] of 14600 ng/mL. It also gave a concentration at 60 min [4, 12] of 15800 ng/mL, a concentration at 120 min [4, 12] of 6440 ng/mL and a concentration at 240 min [4, 11] of 3370 ng/mL. It also gave a concentration at 480 min [4, 11] of 88 ng/mL, an IC50 [5] of 1100 nM and a Ki [5] of 2700 nM. It also gave a nH [5] of 1.1, an inhibition at 10 µM ([5]; CFMQ at 10 μM) of 53% and a pKa1 [6] of 3.95. The pKa2 [6] was 1.70, the “solubility in acidic environments” value ([6]; acidic environments) was “greatly enhanced” and the “solubility in aqueous medium” value ([6]; aqueous medium) was “slight solubility”. The logD ([6]; pH = 7.4) was 3.47, the solubility ([6]; phosphate buffered saline (PBS), aqueous buffer) was 33 µM (≈ 17 µg/mL) and the “binding selectivity for B2-bradykinin receptor” value [7] was “selective”.
